Results reported in PubChem BioAssay AID330 (DTP/NCI, 2004).
Where “and” joins values, the source holds several entries; their conditions need not be identical. Equal entries are not always repeated. Toxic doses and inconclusive results are not listed. How the source made its calls: active means survival T/C of 150% or more; inactive means T/C below 125% in these data.

Tested on: P388 leukemia ip, CD2F1 mice, survival T/C
Assay: NCI In Vivo Anticancer Drug Screen. Data for tumor model P388 Leukemia (intraperitoneal) in CD2F1 (CDF1) mice
Settings: endpoint: median survival time, higher = longer survival
In short: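 Mice carrying the transplanted tumor received test compound or vehicle. Survival was recorded in each group, and the value is the treated-group measurement divided by that of the vehicle-treated control group.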

[1] = dose: 100.0 mg/kg/injection, schedule: Q01DX001 (ip), vehicle: Klucel (hydroxypropylcellulose) (HPC)
[2] = dose: 50.0 mg/kg/injection, schedule: Q01DX005 (ip), vehicle: saline with Tween-80
[3] = dose: 100.0 mg/kg/injection, schedule: Q01DX005 (ip), vehicle: saline with Tween-80
[4] = dose: 200.0 mg/kg/injection, schedule: Q01DX005 (ip), vehicle: saline with Tween-80
[5] = dose: 100.0 mg/kg/injection, schedule: Q01DX009 (ip), vehicle: saline with Tween-80
[6] = dose: 200.0 mg/kg/injection, schedule: Q01DX009 (ip), vehicle: saline with Tween-80
[7] = dose: 400.0 mg/kg/injection, schedule: Q01DX009 (ip), vehicle: saline with Tween-80
[8] = dose: 12.5 mg/kg/injection, schedule: Q01DX005 (ip), vehicle: saline
[9] = dose: 60.0 mg/kg/injection, schedule: Q01DX005 (ip), vehicle: saline with Tween-80
[10] = dose: 120.0 mg/kg/injection, schedule: Q01DX005 (ip), vehicle: saline with Tween-80
[11] = dose: 240.0 mg/kg/injection, schedule: Q01DX005 (ip), vehicle: saline with Tween-80

Measured: T/C

CC(=O)Nc1ncnc2c1c(C(N)=O)cn2C1OC(COC(C)=O)C(OC(C)=O)C1OC(C)=O (centres undefined)
inactive: dose: 1.88 mg/kg/injection, schedule: Q01DX005 (ip), vehicle: saline 107 % of control | dose: 3.75 mg/kg/injection, schedule: Q01DX005 (ip), vehicle: saline 117 % of control

O=CN1CCCC1Cc1ccccc1 (centres undefined)
inactive: dose: 50.0 mg/kg/injection, schedule: Q01DX001 (ip), vehicle: Klucel (hydroxypropylcellulose) (HPC) 101 % of control | [1] 96 % of control

CCN(CC)Cc1cc(N2C(=O)CC3(CCCC3)C2=O)ccc1O
inactive: dose: 100.0 mg/kg/injection, schedule: Q04DX003 (ip), vehicle: Klucel (hydroxypropylcellulose) (HPC) 100 % of control | dose: 200.0 mg/kg/injection, schedule: Q04DX003 (ip), vehicle: Klucel (hydroxypropylcellulose) (HPC) 102 % of control | dose: 400.0 mg/kg/injection, schedule: Q04DX003 (ip), vehicle: Klucel (hydroxypropylcellulose) (HPC) 105 % of control

CC(C)=CCCC1(C)C=Cc2c(ccc3c(C)coc23)O1 (centres undefined)
inactive: [2] 97 % of control | [3] 100 % of control | [4] 100 % of control

CC1(C)CC(=O)C2=C(SC3=C(C2)C(=O)CC(C)(C)S3)S1
inactive: dose: 60.0 mg/kg/injection, schedule: Q01DX005 (ip), vehicle: Klucel (hydroxypropylcellulose) (HPC) 104 % of control | dose: 120.0 mg/kg/injection, schedule: Q01DX005 (ip), vehicle: Klucel (hydroxypropylcellulose) (HPC) 100 % of control | dose: 240.0 mg/kg/injection, schedule: Q01DX005 (ip), vehicle: Klucel (hydroxypropylcellulose) (HPC) 87 % of control

O=C1NC(=S)N/C1=C\c1ccc(Cl)c(Cl)c1
inactive: [5] 95 % of control | [6] 94 % of control | [7] 91 % of control

CCCCN=Cc1c(O)c(O)c(C(C)C)c2cc(C)c(-c3c(C)cc4c(C(C)C)c(O)c(O)c(C=NCCCC)c4c3O)c(O)c12
inactive: dose: 50.0 mg/kg/injection, schedule: Q01DX005 (ip), vehicle: Klucel (hydroxypropylcellulose) (HPC) 99 % of control | dose: 100.0 mg/kg/injection, schedule: Q01DX005 (ip), vehicle: Klucel (hydroxypropylcellulose) (HPC) 107 % of control | dose: 200.0 mg/kg/injection, schedule: Q01DX005 (ip), vehicle: Klucel (hydroxypropylcellulose) (HPC) 114 % of control

COC1/C=C/O[C@@]2(C)Oc3c(C)c(O)c4c(O)c(cc(O)c4c3C2=O)NC(=O)/C(C)=C\C=C\[C@H](C)C(O)[C@@H](C)[C@@H](O)[C@@H](C)[C@H](OC(C)=O)[C@@H]1C (some centres undefined)
inactive: dose: 6.25 mg/kg/injection, schedule: Q03HX024 (ip), vehicle: saline 100 % of control | dose: 12.5 mg/kg/injection, schedule: Q03HX024 (ip), vehicle: saline 110 % of control | dose: 25.0 mg/kg/injection, schedule: Q03HX024 (ip), vehicle: saline 100 % of control | dose: 50.0 mg/kg/injection, schedule: Q03HX024 (ip), vehicle: saline 100 % of control | [5] 90 % of control | dose: 100.0 mg/kg/injection, schedule: Q03HX024 (ip), vehicle: saline 100 % of control | dose: 100.0 mg/kg/injection, schedule: Q04DX003 (ip), vehicle: saline sonified 100 % of control | [6] 109 % of control | dose: 200.0 mg/kg/injection, schedule: Q04DX003 (ip), vehicle: saline sonified 100 % of control | [7] 118 % of control | dose: 400.0 mg/kg/injection, schedule: Q04DX003 (ip), vehicle: saline sonified 109 % of control

COC(=O)C1(O)C(=O)NC2=C1C(=O)c1ccccc1C2=O (centres undefined)
inactive: dose: 12.5 mg/kg/injection, schedule: Q01DX005 (ip), vehicle: saline with Tween-80 99 % of control and 95 % of control | dose: 25.0 mg/kg/injection, schedule: Q01DX005 (ip), vehicle: saline with Tween-80 98 % of control and 110 % of control | [2] 105 % of control

Cc1ccc2nc(NC(=S)NCCCCNC(=S)Nc3ccc4cc(C)ccc4n3)ccc2c1
inactive: dose: 50.0 mg/kg/injection, schedule: Q01DX009 (ip), vehicle: Klucel (hydroxypropylcellulose) (HPC) 98 % of control | dose: 100.0 mg/kg/injection, schedule: Q01DX009 (ip), vehicle: Klucel (hydroxypropylcellulose) (HPC) 94 % of control | dose: 200.0 mg/kg/injection, schedule: Q01DX009 (ip), vehicle: Klucel (hydroxypropylcellulose) (HPC) 89 % of control

CC(=O)NCc1cc(C)c(CBr)cc1CBr
inactive: dose: 0.78 mg/kg/injection, schedule: Q01DX009 (ip), vehicle: distilled water + Tween-80 103 % of control | dose: 1.56 mg/kg/injection, schedule: Q01DX009 (ip), vehicle: distilled water + Tween-80 107 % of control | dose: 3.12 mg/kg/injection, schedule: Q01DX009 (ip), vehicle: distilled water + Tween-80 109 % of control | dose: 6.25 mg/kg/injection, schedule: Q01DX009 (ip), vehicle: distilled water + Tween-80 116 % of control | dose: 12.5 mg/kg/injection, schedule: Q01DX009 (ip), vehicle: distilled water + Tween-80 93 % of control

O=[N+]([O-])[O][Sn]([O][Sn]([O][N+](=O)[O-])([c]1ccccc1)[c]1ccccc1)([c]1ccccc1)[c]1ccccc1
inactive: dose: 1.56 mg/kg/injection, schedule: Q01DX005 (ip), vehicle: Klucel (hydroxypropylcellulose) (HPC) 102 % of control | dose: 3.12 mg/kg/injection, schedule: Q01DX005 (ip), vehicle: Klucel (hydroxypropylcellulose) (HPC) 99 % of control | dose: 6.25 mg/kg/injection, schedule: Q01DX005 (ip), vehicle: Klucel (hydroxypropylcellulose) (HPC) 97 % of control | dose: 12.5 mg/kg/injection, schedule: Q01DX005 (ip), vehicle: Klucel (hydroxypropylcellulose) (HPC) 122 % of control | [8] 96 % of control

O=C1C=CC2(CCC23C=C(Br)C(=O)O3)O1 (centres undefined)
inactive: dose: 5.0 mg/kg/injection, schedule: Q01DX009 (ip), vehicle: Klucel (hydroxypropylcellulose) (HPC) 102 % of control | dose: 10.0 mg/kg/injection, schedule: Q01DX009 (ip), vehicle: Klucel (hydroxypropylcellulose) (HPC) 108 % of control | dose: 20.0 mg/kg/injection, schedule: Q01DX009 (ip), vehicle: Klucel (hydroxypropylcellulose) (HPC) 106 % of control

CCCn1c(C)nc2c([N+](=O)[O-])cc(C(F)(F)F)cc21
inactive: [9] 98 % of control | [10] 97 % of control | [11] 99 % of control

CCOC(=O)C12C=CC(=O)NC1(OC)OC(C)C2 (centres undefined)
inactive: [1] 90 % of control | dose: 200.0 mg/kg/injection, schedule: Q01DX001 (ip), vehicle: Klucel (hydroxypropylcellulose) (HPC) 94 % of control | dose: 400.0 mg/kg/injection, schedule: Q01DX001 (ip), vehicle: Klucel (hydroxypropylcellulose) (HPC) 93 % of control

Cc1ccc(S(=O)c2cc(C)cc(C(C)(C)C)c2O)cc1 (centres undefined)
inactive: dose: 50.0 mg/kg/injection, schedule: Q01DX009 (ip), vehicle: saline with Tween-80 103 % of control | [5] 105 % of control | [6] 96 % of control

CCOC(=O)C(C(=O)OCC)c1c[n+]([O-])c2ccccc2c1[N+](=O)[O-]
inactive: [5] 104 % of control | dose: 100.0 mg/kg/injection, schedule: Q04DX003 (ip), vehicle: saline with Tween-80 109 % of control | [6] 100 % of control | dose: 200.0 mg/kg/injection, schedule: Q04DX003 (ip), vehicle: saline with Tween-80 104 % of control | [7] 100 % of control | dose: 400.0 mg/kg/injection, schedule: Q04DX003 (ip), vehicle: saline with Tween-80 95 % of control

Cn1cccc1/C=N/N1CC(=O)N(c2cccc(Cl)c2)CC1=O
inactive: [2] 100 % of control | [3] 97 % of control

O=C1c2cccnc2C(=O)C2CC3=C(CCCC3)CC12 (centres undefined)
inactive: [2] 100 % of control | [3] 100 % of control | [4] 100 % of control

O=c1cccc2n1C[C@H]1C[C@@H]2CN2CCCC[C@H]12
inactive: dose: 6.25 mg/kg/injection, schedule: Q01DX005 (ip), vehicle: saline 99 % of control | [8] 99 % of control

Cc1cccc(Cl)c1NC(=O)Nc1ccc(Cl)cc1C(=O)c1ccccc1
inactive: [9] 99 % of control | [10] 94 % of control | [11] 101 % of control
